This note sets out measurements from US8642647B2, “N1-benzo[1,3]dioxol-5-ylmethyl-N2-substituted biguanide derivative, preparation method thereof, and pharmaceutical composition containing same” (Hanall Biopharma Co., Ltd., priority 2008, dated 2014).

One assay deals with HepG2 cells. Kind of assay: Measurement of gluconeogenesis inhibitory ability. In kind it is cell-based. The note with it: Homo sapiens, HepG2, 24 h, 100 μM compound, 24 hours, HepG2 cells; content of glucose formed from 14C-lactate; lower value = stronger inhibition; read-out: Gluconeogenesis inhibition (100 μM) aver. Here is the method: (§1) 2 mM metformin was used as a comparative compound for each of the plates (control group).
HepG2 cells (ATCC: American Type Culture Collection) were cultured in 10% serum-containing high glucose media, transferred to no serum-containing low glucose media (DMEM (Gibco), FBS (Gibco)), and then treated with 100 μM of each of the compounds for 24 hours. Then, the cells were treated with 0.5 μCi ^14C-lactate (Amersham Pharmacia) and 10 mM L-lactate (Sigma), and cultured for 4 hours. After cultivation, the media were removed therefrom, and the cells were washed with PBS, treated with 0.1N NaOH and kept at room temperature for 1 hour. Then, the cells were neutralized with 1N HCl, and the content of glucose formed in the cells was measured with a liquid scintillation counter.
A lower measurement value means an increased gluconeogenesis inhibitory ability.
For the compound `CCCCCCc1ccc(N=C(NCc2ccc3c(c2)OCO3)NC(=N)N)cc1.Cl` [Example 25, N1-benzo[1,3]dioxol-5-ylmethyl-N2-(4-hexylphenyl)biguanide hydrochloride], the activity at 100 µM turned out to be 2.53%.

For `COc1cc(N=C(NCc2ccc3c(c2)OCO3)NC(=N)N)cc(OC)c1.Cl` [Example 26, N1-benzo[1,3]dioxol-5-ylmethyl-N2-(3,5-dimethoxyphenyl)biguanide hydrochloride], the activity at 100 µM amounted to 87.6%.

Regarding `Cl.N=C(N)NC(=NC12CC3CC(CC(C3)C1)C2)NCc1ccc2c(c1)OCO2` [Example 27, N1-benzo[1,3]dioxol-5-ylmethyl-N2-(1-adamantyl)biguanide hydrochloride], the activity at 100 µM came out at 31.4%.

For the compound `Cl.N=C(N)NC(=Nc1ccc(Oc2ccccc2)cc1)NCc1ccc2c(c1)OCO2` [Example 30, N1-benzo[1,3]dioxol-5-ylmethyl-N2-(4-phenoxyphenyl)biguanide hydrochloride], the activity at 100 µM was 3.04%.

Turning to `COCCN=C(NCc1ccc2c(c1)OCO2)NC(=N)N.Cl` [Example 31, N1-benzo[1,3]dioxol-5-ylmethyl-N2-(2-methoxyethyl)biguanide hydrochloride], the activity at 100 µM turned out to be 100%.

Take `Cl.N=C(N)NC(=Nc1ccc(Br)cc1)NCc1ccc2c(c1)OCO2` [Example 32, N1-benzo[1,3]dioxol-5-ylmethyl-N2-(4-bromophenyl)biguanide hydrochloride]: the activity at 100 µM was 4.42%.

`CC(C)(C)c1ccc(N=C(NCc2ccc3c(c2)OCO3)NC(=N)N)cc1.Cl` [Example 33, N1-benzo[1,3]dioxol-5-ylmethyl-N2-(4-t-butylphenyl)biguanide hydrochloride]: the activity at 100 µM is 2.35%.

As for `Cl.N=C(N)NC(=Nc1cc(Cl)cc(Cl)c1)NCc1ccc2c(c1)OCO2` [Example 34, N1-benzo[1,3]dioxol-5-ylmethyl-N2-(3,5-dichlorophenyl)biguanide hydrochloride], the activity at 100 µM is 2.37%.

The test system of another assay is HepG2 cells. Put plainly: Measurement of cholesterol synthesis inhibitory ability. The settings on record: 100 μM compound, 24 hours, HepG2 cells; content of cholesterol formed; lower value = stronger inhibition. Type of assay: cell-based. Here is the method: as §1
A cholesterol synthesis inhibitory ability, which is an important function of AMPK (AMP-activated protein kinase), was measured using HepG2 cells (ATCC: American Type Culture Collection) as a hepatic cell model according to the following procedure.
The hepatic cell model HepG2 cells were cultured in 1% serum-containing media (DMEM (Gibco), FBS (Gibco)) for 24 hours, and then treated with 100 μM or 500 μM of each of the compounds prepared in Examples for 24 hours. Then, the cells were disrupted with a lysis solution (0.1 M potassium phosphate, pH 7.4, 0.05 M NaCl, 5 mM cholic acid, 0.1% Triton X-100 (Sigma)). To the disrupted cells was added the same volume of a reaction solution (2 U/ml of a cholesterol oxidizing agent, 2 U/ml of a peroxidase, 0.2 U/ml of a cholesterol esterase, and 300 μM of Amplex red as a fluorescent factor (Molecular Probe)), which was allowed to react at 37° C. for 30 minutes. After completion of the reaction, the content of cholesterol formed in the cell lysates was measured at a wavelength of 560/590 nm (ex/em) using a fluorescence microscope.
A lower measurement value means an increased cholesterol synthesis inhibitory ability.
Take `CCCCCCc1ccc(N=C(NCc2ccc3c(c2)OCO3)NC(=N)N)cc1.Cl` [Example 25, N1-benzo[1,3]dioxol-5-ylmethyl-N2-(4-hexylphenyl)biguanide hydrochloride]: the “Cholesterol (100 μM) aver.” value came out at 82.62.

As to `COc1cc(N=C(NCc2ccc3c(c2)OCO3)NC(=N)N)cc(OC)c1.Cl` [Example 26, N1-benzo[1,3]dioxol-5-ylmethyl-N2-(3,5-dimethoxyphenyl)biguanide hydrochloride], the “Cholesterol (100 μM) aver.” value is given as 61.86.

Take `Cl.N=C(N)NC(=NC12CC3CC(CC(C3)C1)C2)NCc1ccc2c(c1)OCO2` [Example 27, N1-benzo[1,3]dioxol-5-ylmethyl-N2-(1-adamantyl)biguanide hydrochloride]: the “Cholesterol (100 μM) aver.” value was 64.82.

For `Cl.N=C(N)NC(=Nc1ccc(Oc2ccccc2)cc1)NCc1ccc2c(c1)OCO2` [Example 30, N1-benzo[1,3]dioxol-5-ylmethyl-N2-(4-phenoxyphenyl)biguanide hydrochloride], the “Cholesterol (100 μM) aver.” value amounted to 21.94.

As to `COCCN=C(NCc1ccc2c(c1)OCO2)NC(=N)N.Cl` [Example 31, N1-benzo[1,3]dioxol-5-ylmethyl-N2-(2-methoxyethyl)biguanide hydrochloride], the “Cholesterol (100 μM) aver.” value is 84.45.

Take `Cl.N=C(N)NC(=Nc1ccc(Br)cc1)NCc1ccc2c(c1)OCO2` [Example 32, N1-benzo[1,3]dioxol-5-ylmethyl-N2-(4-bromophenyl)biguanide hydrochloride]: the “Cholesterol (100 μM) aver.” value amounted to 11.62.

On to `CC(C)(C)c1ccc(N=C(NCc2ccc3c(c2)OCO3)NC(=N)N)cc1.Cl` [Example 33, N1-benzo[1,3]dioxol-5-ylmethyl-N2-(4-t-butylphenyl)biguanide hydrochloride], for which the “Cholesterol (100 μM) aver.” value worked out at 20.42.

As to `Cl.N=C(N)NC(=Nc1cc(Cl)cc(Cl)c1)NCc1ccc2c(c1)OCO2` [Example 34, N1-benzo[1,3]dioxol-5-ylmethyl-N2-(3,5-dichlorophenyl)biguanide hydrochloride], the “Cholesterol (100 μM) aver.” value was found to be 15.56.

The same assay, now with this note: 500 μM compound, 24 hours, HepG2 cells; content of cholesterol formed; lower value = stronger inhibition.
As for `CCCCCCc1ccc(N=C(NCc2ccc3c(c2)OCO3)NC(=N)N)cc1.Cl` [Example 25, N1-benzo[1,3]dioxol-5-ylmethyl-N2-(4-hexylphenyl)biguanide hydrochloride], the “Cholesterol (500 μM) aver.” value is given as 125.3.

On to `COc1cc(N=C(NCc2ccc3c(c2)OCO3)NC(=N)N)cc(OC)c1.Cl` [Example 26, N1-benzo[1,3]dioxol-5-ylmethyl-N2-(3,5-dimethoxyphenyl)biguanide hydrochloride], for which the “Cholesterol (500 μM) aver.” value was 17.53.

Turning to `Cl.N=C(N)NC(=NC12CC3CC(CC(C3)C1)C2)NCc1ccc2c(c1)OCO2` [Example 27, N1-benzo[1,3]dioxol-5-ylmethyl-N2-(1-adamantyl)biguanide hydrochloride], the “Cholesterol (500 μM) aver.” value worked out at 45.24.

For the compound `Cl.N=C(N)NC(=Nc1ccc(Oc2ccccc2)cc1)NCc1ccc2c(c1)OCO2` [Example 30, N1-benzo[1,3]dioxol-5-ylmethyl-N2-(4-phenoxyphenyl)biguanide hydrochloride], the “Cholesterol (500 μM) aver.” value is given as 40.34.

For `COCCN=C(NCc1ccc2c(c1)OCO2)NC(=N)N.Cl` [Example 31, N1-benzo[1,3]dioxol-5-ylmethyl-N2-(2-methoxyethyl)biguanide hydrochloride], the “Cholesterol (500 μM) aver.” value came out at 69.16.

For the compound `Cl.N=C(N)NC(=Nc1ccc(Br)cc1)NCc1ccc2c(c1)OCO2` [Example 32, N1-benzo[1,3]dioxol-5-ylmethyl-N2-(4-bromophenyl)biguanide hydrochloride], the “Cholesterol (500 μM) aver.” value is 20.56.

With `CC(C)(C)c1ccc(N=C(NCc2ccc3c(c2)OCO3)NC(=N)N)cc1.Cl` [Example 33, N1-benzo[1,3]dioxol-5-ylmethyl-N2-(4-t-butylphenyl)biguanide hydrochloride], the “Cholesterol (500 μM) aver.” value amounted to 30.52.

In the case of `Cl.N=C(N)NC(=Nc1cc(Cl)cc(Cl)c1)NCc1ccc2c(c1)OCO2` [Example 34, N1-benzo[1,3]dioxol-5-ylmethyl-N2-(3,5-dichlorophenyl)biguanide hydrochloride], the “Cholesterol (500 μM) aver.” value is reported as 39.12.

The next assay relates to HepG2 cells. Kind of assay: Measurement of triglyceride synthesis inhibitory ability. The note with it: 100 μM compound, 24 hours, HepG2 cells; content of triglyceride formed; lower value = stronger inhibition. In kind it is cell-based. The procedure: as §1
HepG2 cells (ATCC: American Type Culture Collection) were cultured in 1% serum-containing media (DMEM (Gibco), FBS (Gibco)) for 24 hours, and then treated with 100 μM or 500 μM of each of the compounds prepared in Examples for 24 hours. Then, the cells were disrupted with a lysis solution (0.1 M potassium phosphate, pH 7.4, 0.05 M NaCl, 5 mM cholic acid, 0.1% Triton X-100). To the disrupted cells was added the same volume of a reaction solution (0.76 U/ml of a glycerol kinase (Asan Pharmaceutical Co., Ltd.), […] of a peroxidase (Asan Pharmaceutical Co., Ltd.), 22.2 U/ml of a glycerol oxidizing agent (Asan Pharmaceutical Co., Ltd.), and 300 μM of Amplex red as a fluorescent factor (Molecular Probe)), which was allowed to react at 37° C. for 30 minutes. After completion of the reaction, the content of triglyceride formed in the cell lysates was measured at a wavelength of 560/590 nm (ex/em) using a fluorescence microscope.
A lower measurement value means an increased triglyceride synthesis inhibitory ability.
Take `CCCCCCc1ccc(N=C(NCc2ccc3c(c2)OCO3)NC(=N)N)cc1.Cl` [Example 25, N1-benzo[1,3]dioxol-5-ylmethyl-N2-(4-hexylphenyl)biguanide hydrochloride]: the “Triglyceride (100 μM) aver.” value is recorded as 18.43.

Consider `COc1cc(N=C(NCc2ccc3c(c2)OCO3)NC(=N)N)cc(OC)c1.Cl` [Example 26, N1-benzo[1,3]dioxol-5-ylmethyl-N2-(3,5-dimethoxyphenyl)biguanide hydrochloride], for which the “Triglyceride (100 μM) aver.” value came out at 86.94.

Take `Cl.N=C(N)NC(=NC12CC3CC(CC(C3)C1)C2)NCc1ccc2c(c1)OCO2` [Example 27, N1-benzo[1,3]dioxol-5-ylmethyl-N2-(1-adamantyl)biguanide hydrochloride]: the “Triglyceride (100 μM) aver.” value was found to be 67.58.

`Cl.N=C(N)NC(=Nc1ccc(Oc2ccccc2)cc1)NCc1ccc2c(c1)OCO2` [Example 30, N1-benzo[1,3]dioxol-5-ylmethyl-N2-(4-phenoxyphenyl)biguanide hydrochloride]: the “Triglyceride (100 μM) aver.” value is on record as 18.22.

As to `COCCN=C(NCc1ccc2c(c1)OCO2)NC(=N)N.Cl` [Example 31, N1-benzo[1,3]dioxol-5-ylmethyl-N2-(2-methoxyethyl)biguanide hydrochloride], the “Triglyceride (100 μM) aver.” value is 74.51.

For `Cl.N=C(N)NC(=Nc1ccc(Br)cc1)NCc1ccc2c(c1)OCO2` [Example 32, N1-benzo[1,3]dioxol-5-ylmethyl-N2-(4-bromophenyl)biguanide hydrochloride], the “Triglyceride (100 μM) aver.” value came to 35.08.

Consider `CC(C)(C)c1ccc(N=C(NCc2ccc3c(c2)OCO3)NC(=N)N)cc1.Cl` [Example 33, N1-benzo[1,3]dioxol-5-ylmethyl-N2-(4-t-butylphenyl)biguanide hydrochloride], for which the “Triglyceride (100 μM) aver.” value is recorded as 27.40.

Take `Cl.N=C(N)NC(=Nc1cc(Cl)cc(Cl)c1)NCc1ccc2c(c1)OCO2` [Example 34, N1-benzo[1,3]dioxol-5-ylmethyl-N2-(3,5-dichlorophenyl)biguanide hydrochloride]: the “Triglyceride (100 μM) aver.” value came to 21.41.

Staying with this assay, now noted: 500 μM compound, 24 hours, HepG2 cells; content of triglyceride formed; lower value = stronger inhibition.
As to `CCCCCCc1ccc(N=C(NCc2ccc3c(c2)OCO3)NC(=N)N)cc1.Cl` [Example 25, N1-benzo[1,3]dioxol-5-ylmethyl-N2-(4-hexylphenyl)biguanide hydrochloride], the “Triglyceride (500 μM) aver.” value came to 35.53.

As to `COc1cc(N=C(NCc2ccc3c(c2)OCO3)NC(=N)N)cc(OC)c1.Cl` [Example 26, N1-benzo[1,3]dioxol-5-ylmethyl-N2-(3,5-dimethoxyphenyl)biguanide hydrochloride], the “Triglyceride (500 μM) aver.” value is reported as 21.88.

For the compound `Cl.N=C(N)NC(=NC12CC3CC(CC(C3)C1)C2)NCc1ccc2c(c1)OCO2` [Example 27, N1-benzo[1,3]dioxol-5-ylmethyl-N2-(1-adamantyl)biguanide hydrochloride], the “Triglyceride (500 μM) aver.” value stood at 11.48.

`Cl.N=C(N)NC(=Nc1ccc(Oc2ccccc2)cc1)NCc1ccc2c(c1)OCO2` [Example 30, N1-benzo[1,3]dioxol-5-ylmethyl-N2-(4-phenoxyphenyl)biguanide hydrochloride]: the “Triglyceride (500 μM) aver.” value came to 3.05.

As for `COCCN=C(NCc1ccc2c(c1)OCO2)NC(=N)N.Cl` [Example 31, N1-benzo[1,3]dioxol-5-ylmethyl-N2-(2-methoxyethyl)biguanide hydrochloride], the “Triglyceride (500 μM) aver.” value came out at 73.00.

For `Cl.N=C(N)NC(=Nc1ccc(Br)cc1)NCc1ccc2c(c1)OCO2` [Example 32, N1-benzo[1,3]dioxol-5-ylmethyl-N2-(4-bromophenyl)biguanide hydrochloride], the “Triglyceride (500 μM) aver.” value came to 17.38.

Take `CC(C)(C)c1ccc(N=C(NCc2ccc3c(c2)OCO3)NC(=N)N)cc1.Cl` [Example 33, N1-benzo[1,3]dioxol-5-ylmethyl-N2-(4-t-butylphenyl)biguanide hydrochloride]: the “Triglyceride (500 μM) aver.” value was 7.08.

For `Cl.N=C(N)NC(=Nc1cc(Cl)cc(Cl)c1)NCc1ccc2c(c1)OCO2` [Example 34, N1-benzo[1,3]dioxol-5-ylmethyl-N2-(3,5-dichlorophenyl)biguanide hydrochloride], the “Triglyceride (500 μM) aver.” value stood at 8.80.
